Converted amounts (≈) assume the structure as drawn.
What was measured:
[1] = target: cAMP and cAMP-inhibited cGMP 3',5'-cyclic phosphodiesterase 10A (Homo sapiens, UniProt Q9Y233); test: Inhibition of PDE10A (unknown origin) by IMAP assay
[2] = Aqueous solubility of the compound at pH 7; format: physicochemical

Sequence of cAMP and cAMP-inhibited cGMP 3',5'-cyclic phosphodiesterase 10A (Q9Y233 whole entry): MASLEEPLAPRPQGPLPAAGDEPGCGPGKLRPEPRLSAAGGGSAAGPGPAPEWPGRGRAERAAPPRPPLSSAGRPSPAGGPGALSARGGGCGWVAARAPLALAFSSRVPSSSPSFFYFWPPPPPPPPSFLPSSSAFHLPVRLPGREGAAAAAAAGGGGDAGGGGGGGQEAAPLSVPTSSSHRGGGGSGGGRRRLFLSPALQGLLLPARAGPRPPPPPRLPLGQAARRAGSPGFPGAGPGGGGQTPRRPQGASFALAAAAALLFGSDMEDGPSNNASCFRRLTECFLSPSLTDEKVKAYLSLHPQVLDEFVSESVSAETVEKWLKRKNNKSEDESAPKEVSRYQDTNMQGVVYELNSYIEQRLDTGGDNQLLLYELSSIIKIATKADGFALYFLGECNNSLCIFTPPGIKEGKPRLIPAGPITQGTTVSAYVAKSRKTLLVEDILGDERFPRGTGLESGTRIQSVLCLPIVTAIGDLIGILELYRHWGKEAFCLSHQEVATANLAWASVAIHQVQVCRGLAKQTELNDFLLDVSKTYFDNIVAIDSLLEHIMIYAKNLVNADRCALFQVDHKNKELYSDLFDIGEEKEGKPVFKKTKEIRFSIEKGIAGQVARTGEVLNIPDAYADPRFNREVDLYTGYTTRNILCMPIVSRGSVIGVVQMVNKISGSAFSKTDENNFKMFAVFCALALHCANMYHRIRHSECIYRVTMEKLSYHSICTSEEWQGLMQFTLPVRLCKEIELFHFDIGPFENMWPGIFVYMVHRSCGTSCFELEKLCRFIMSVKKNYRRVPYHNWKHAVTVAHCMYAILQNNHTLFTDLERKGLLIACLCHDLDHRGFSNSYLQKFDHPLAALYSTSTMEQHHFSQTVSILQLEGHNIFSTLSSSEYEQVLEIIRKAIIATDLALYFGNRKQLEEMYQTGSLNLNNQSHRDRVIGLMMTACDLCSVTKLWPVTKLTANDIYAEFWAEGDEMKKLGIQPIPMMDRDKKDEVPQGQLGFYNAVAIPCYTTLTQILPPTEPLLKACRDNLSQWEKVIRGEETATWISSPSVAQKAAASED

Cc1nc(C)c(CNc2nc(CCC#Cc3ccccn3)nc(Cl)c2C)s1
Ki [1]: 1.1 nM

Cc1nc(C)c(CNc2nc(OCC3CC3C3CCCN3C)nc(Cl)c2C)s1 (racemic; form 1)
Ki [1]: 102 nM

Cc1nc(C)c(CNc2nc(OC[C@H]3C[C@@H]3c3ccccn3)nc(Cl)c2C)s1 (racemic)
Ki [1]: 0.07 nM

Cc1c(Cl)nc(C2CC2)nc1Cl
solubility [2]: 150 µM (≈ 30.5 µg/mL)

Cc1nc(C)c(CNc2nc(OCCCc3ccccn3)nc(Cl)c2C)s1
Ki [1]: 1.1 nM

Cn1cc(-c2ccncc2)c(-c2ccc(OCc3ccc4ccccc4n3)cc2)n1 [MARDEPODECT]
solubility [2]: 4 µM (≈ 1.57 µg/mL)

Cc1nc(C)c(CNc2nc(OCC3CC3c3ccc(C#N)cn3)nc(Cl)c2C)s1 (racemic)
Ki [1]: 1.4 nM

Cc1ccnc(C2CC2COc2nc(Cl)c(C)c(NCc3sc(C)nc3C)n2)c1 (stereo unspecified)
Ki [1]: 0.01 nM

Cc1nc(C)c(CNc2nc(OCC3CC3c3ccc4ncccc4n3)nc(Cl)c2C)s1 (racemic)
Ki [1]: 0.02 nM

Cc1nc(C)c(CNc2nc(OC[C@H]3C[C@H]3c3ccccn3)nc(Cl)c2C)s1 (racemic)
Ki [1]: 15.5 nM

Cc1nc(C)c(CNc2nc(OC[C@H]3C[C@@H]3c3ccccn3)nc(Cl)c2C)s1
Ki [1]: 0.03 nM

Cc1nc(C)c(CNc2cc(Cl)nc3ccnn23)s1
Ki [1]: 58 nM

Cc1nc(C)c(CNc2nc(OCC#Cc3ccccn3)nc(Cl)c2C)s1
Ki [1]: 3.1 nM

Cc1nc(C)c(CNc2nc(OCC3CC3c3cncn3C)nc(Cl)c2C)s1 (stereo unspecified)
Ki [1]: 20.3 nM

Cc1nc(C)c(CNc2nc(OCC3CC3c3ncccn3)nc(Cl)c2C)s1 (racemic)
Ki [1]: 3.6 nM

Cc1nc(C)c(CNc2nc(OCC3CC3c3ccc4ccccc4n3)nc(Cl)c2C)s1 (racemic)
Ki [1]: 0.01 nM
